Laboratory results taken from PubChem BioAssay AID1625 (Sanford-Burnham Center for Chemical Genomics, 2009).
Calls of active or inactive are those of the source.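 The calls were made as follows: active = z-score above 3 at 5 µM with at least 500 cells counted in the well; inconclusive = wells under 500 cells, flagged as cytotoxic or low count; inactive = the rest.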

Test system: MIN6 insulin promoter-GFP reporter, high-content imaging
Assay: up-regulation of insulin promoter-GFP reporter – imaging, high-content screening, mouse beta cells (AID 1625)

Compound | EC50
Cc1nn(C)cc1N1C(=O)c2cccc3c(N)ccc(c23)C1=O | > 16 µM (inactive)
O=[N+]([O-])c1ccc(N/N=C/c2cn(Cc3ccc(F)cc3)c3ccccc23)nc1 | > 16 µM (inactive)
COc1ccc(N=C2NC(=O)S/C2=C\c2ccc(N(C)C)cc2)cc1 | > 16 µM (inactive)
CCOC(=O)C1=C(C)NC(=O)NC1c1ccc(N2CCC(c3ccccc3)=N2)cc1 (stereo not given) | > 16 µM (inactive)
C=CCN1C=CC(=CC=C(C#N)C#N)C=C1 | 10.4 µM (inactive)
COc1ccc2c(c1)NC(c1ccc(N(C)C)cc1)c1cccn1-2 (stereo not given) | > 16 µM (inactive)
CN1CC=C2C(C#N)=C(N)C(C#N)(C#N)[C@H](c3cccc(Cl)c3)C2C1 (stereo not given in full) | 8.14 µM
Cc1csc(NC(=O)c2sc3nc(-c4cccs4)ccc3c2N)n1 | > 16 µM (inactive)
CCCN1C(=O)/C(=C/c2c(NCCCOC(C)C)nc3c(C)cccn3c2=O)SC1=S | > 16 µM (inactive)
CCC(C)N1C(=O)/C(=C/c2c(NCCCOC(C)C)nc3c(C)cccn3c2=O)SC1=S (stereo not given) | 2.83 µM
C=CCN1C(=O)/C(=C\C=C2\N(C)c3ccccc3C2(C)C)SC1=S | > 16 µM (inactive)
CC(=O)Nc1sc(/C(C#N)=C/c2ccc(Cl)c(Cl)c2)nc1-c1ccc(C)cc1 | > 16 µM (inactive)
CCN(CC)c1ccc(/C=C2/SC(=O)N(C(C)C)C2=O)o1 | 4.26 µM
CCOC(=O)/C(=C\C=C1/Sc2cc(OCC)c(OCC)cc2N1CC)C(C)=O | 6.72 µM
CCCNC(=O)Cn1c(=O)/c(=C\c2ccc(-c3ccc([N+](=O)[O-])cc3)o2)s/c1=C\C(=O)C(C)(C)C | 0.359 µM
Cc1cc(C)cc(N=Cc2[nH]c3ccc(Br)c(Cl)c3c2O)c1 | 3.42 µM
CCCCN(C)C1=CC2=CC(=C(C#N)C#N)CCC2CC1 (stereo not given) | < 0.25 µM
Cc1ccnc(N/C=C(\C#N)c2nc(-c3cccc(Br)c3)cs2)c1 | > 16 µM (inactive)
CC1=C/C(=C\C=C(C#N)C#N)N(C)c2ccccc21 | > 16 µM (inactive)
CN1C(=O)C(=Cc2ccc(N3CCCCC3)o2)C(=O)N(C)C1=S | > 16 µM (inactive)
CC(C)(C)C(=O)c1sc2nc(-c3cccs3)cc(C(F)(F)F)c2c1N | > 16 µM (inactive)
Cc1cccc(NC(=O)/C=C/c2ccc([N+](=O)[O-])s2)c1 | > 16 µM (inactive)
CN1/C(=C\C=C2/SC(=S)NC2=O)C(C)(C)c2ccccc21 | 9.29 µM
CCCCn1nc(-c2ccccc2)c2nc3ccccc3nc21 | > 16 µM (inactive)
N#Cc1cccc(NC(=O)CSc2ccc3c4c(cccc24)C(=O)c2ccccc2-3)c1 | 14.7 µM (inactive)

Compound | EC50
COc1ccccc1NS(=O)(=O)c1cc([N+](=O)[O-])ccc1N/N=C/c1sc(N2CCOCC2)nc1-c1ccccc1 | 1.83 µM
O=C1S/C(=C/c2ccc(N3CCOCC3)o2)C(=O)N1Cc1c(F)cccc1Cl | 1.76 µM
CCCC1C2CN(C(C)C)CC=C2C(C#N)=C(N)C1(C#N)C#N (stereo not given) | 5.53 µM
N#C/C(=C/c1ccc(N2CCCCC2)o1)c1cccc(F)c1 | 8.75 µM
N#C/C(=C/c1ccc(N2CCOCC2)o1)C(=O)Nc1ccccc1 | 9.79 µM
CC(=O)c1c(N2CCOCC2)[nH]c(-c2ccccc2)nc1=S | 13.5 µM (inactive)
CC[n+]1c(/C=C/C=C/N(C(C)=O)c2ccccc2)sc2cc(OC)ccc21 | 0.887 µM
O=S(=O)([O-])CCC[n+]1c(/C=C\Nc2ccccc2)oc2ccc(-c3ccccc3)cc21 | 3.34 µM
CN1C2CCC1/C(=C/c1cccn1C)C(=O)/C2=C\c1cccn1C | > 16 µM (inactive)
CCOC(=O)c1nn(-c2ccc(Cl)cc2Cl)c(=N)c(C#N)c1C | 7.31 µM
Cc1ccc(CN=Cc2[nH]c3ccc(Br)c(Cl)c3c2O)cc1 | > 16 µM (inactive)
Cc1ccc(CNc2ccc3c(c2)OCO3)c(C)c1 | > 16 µM (inactive)
O=C1/C(=C/c2ccc(N3CCOCC3)o2)SC(=Nc2ccccc2)N1CCc1c[nH]c2ccccc12 | 0.702 µM
Nc1c(C(=O)c2ccc(Cl)cc2)sc2nsc(SCCN3CCOCC3)c12 | 5.95 µM
CC(=O)Nc1sc(/C(C#N)=C\c2cccc(Cl)c2)nc1-c1ccc(C)cc1 | 8.92 µM
N#CC(C#N)=C1C=C2C=C(N3CCCCC3)CCC2CC1 (stereo not given) | 0.643 µM
CCOC(=O)CN1C(=O)S/C(=C/c2ccc(N3CCCCC3)o2)C1=O | 8.3 µM
O=C(N=C1SCC(=O)N1c1ccccc1Cl)c1ccccc1 | > 16 µM (inactive)
CN(C)c1ccc(/C=C2\C(=N)N3C(=NC2=O)Sc2cc(S(C)(=O)=O)ccc23)cc1 | > 16 µM (inactive)
O=C1S/C(=C\c2ccc(N3CCOCC3)o2)C(=O)N1Cc1ccc(F)cc1 | > 16 µM (inactive)
Nc1c(C(=O)c2cccs2)sc2nsc(SCCN3CCCCC3)c12 | 9.62 µM
CC(C)(C)C(=O)/C=c1\s/c(=C\c2ccc(-c3ccc([N+](=O)[O-])cc3)o2)c(=O)n1CC(=O)NC(N)=O | 0.829 µM
CC(C)/C=C1\CC/C(=C\c2ccc(N(C)C)cc2)C1=O | > 16 µM (inactive)
Nc1c(C(=O)C2CC2)sc2nc(-c3ccccc3)cc(C(F)(F)F)c12 | 8.81 µM
COc1ccc(C2C(C(C)=O)=C(C)N=c3s/c(=C\c4cc(C)n(C)c4C)c(=O)n32)c(OC)c1 (stereo not given) | 8.89 µM
